Experimental data as given in the supplement of paper PMC10307832.

Key:
Experiment in all cases: relative viability (nuclei count vs DMSO), 5 days (fraction); higher = more cells survive
[1] = compound: C=CCNC1=C2C[C@@H](C)C[C@H](OC)[C@H](O)[C@@H](C)/C=C(\C)[C@H](OC(N)=O)[C@@H](OC)/C=C\C=C(/C)C(=O)NC(=CC1=O)C2=O [17-AAG] + COc1cc2c(Oc3ccc(NC(=O)C4(C(=O)Nc5ccc(F)cc5)CC4)cc3F)ccnc2cc1OCCCN1CCOCC1 [Foretinib] (partner 0.25 µM)
How it was run: (§1)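 Lung cancer cell lines, seeded in 1536-well plates, were treated the following day by pin tool with a single drug or with five library-drug doses (not always all listed) in √10 steps on top of a fixed anchor-drug dose. Cells were fixed and nuclei stained in one step after 5 days, and nuclei were counted. Relative viability is the nuclei count for treated wells divided by that for vehicle wells, reported as medians of duplicate plates.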

[2] = compound: C=CCNC1=C2C[C@@H](C)C[C@H](OC)[C@H](O)[C@@H](C)/C=C(\C)[C@H](OC(N)=O)[C@@H](OC)/C=C\C=C(/C)C(=O)NC(=CC1=O)C2=O [17-AAG] + CCNC(=O)c1noc(-c2cc(C(C)C)c(O)cc2O)c1-c1ccc(CN2CCOCC2)cc1 [Luminespib] (partner 0.01 µM)
How it was run: as §1

[3] = compound: C=CCNC1=C2C[C@@H](C)C[C@H](OC)[C@H](O)[C@@H](C)/C=C(\C)[C@H](OC(N)=O)[C@@H](OC)/C=C\C=C(/C)C(=O)NC(=CC1=O)C2=O [17-AAG] + Cc1nc(Nc2ncc(C(=O)Nc3c(C)cccc3Cl)s2)cc(N2CCN(CCO)CC2)n1 [Dasatinib] (partner 0.075 µM)
How it was run: as §1

[4] = compound: C=CCNC1=C2C[C@@H](C)C[C@H](OC)[C@H](O)[C@@H](C)/C=C(\C)[C@H](OC(N)=O)[C@@H](OC)/C=C\C=C(/C)C(=O)NC(=CC1=O)C2=O [17-AAG] + Nc1ncn([C@H]2C[C@H](O)[C@@H](CO)O2)c(=O)n1 [Decitabine] (partner 2 µM)
How it was run: as §1

| Cell Line | relative viability ([1]; first compound 0.00128 µM) | relative viability ([1]; first compound 0.004048 µM) | relative viability ([1]; first compound 0.0128 µM) | relative viability ([1]; first compound 0.04048 µM) | relative viability ([1]; first compound 0.128 µM) | relative viability ([2]; first compound 0.00128 µM) | relative viability ([2]; first compound 0.004048 µM) | relative viability ([2]; first compound 0.0128 µM) | relative viability ([2]; first compound 0.04048 µM) | relative viability ([2]; first compound 0.128 µM) | relative viability ([3]; first compound 0.00128 µM) | relative viability ([3]; first compound 0.004048 µM) | relative viability ([3]; first compound 0.0128 µM) | relative viability ([3]; first compound 0.04048 µM) | relative viability ([3]; first compound 0.128 µM) | relative viability ([4]; first compound 0.00128 µM) | relative viability ([4]; first compound 0.004048 µM) | relative viability ([4]; first compound 0.0128 µM) | relative viability ([4]; first compound 0.04048 µM) | relative viability ([4]; first compound 0.128 µM) |
| --- | --- | --- | --- | --- | --- | --- | --- | --- | --- | --- | --- | --- | --- | --- | --- | --- | --- | --- | --- | --- |
| NCI-H322M | 0.971 | 1.04 | 0.577 | 0.306 | 0.323 | 0.663 | 0.274 | 0.285 | 0.274 | 0.289 | 0.284 | 0.302 | 0.256 | 0.257 | 0.268 | 0.811 | 0.706 | 0.641 | 0.475 | 0.442 |
| NCI-H358 | 0.669 | 0.397 | 0.0697 | 0.0813 | 0.0542 | 0.273 | 0.235 | 0.121 | 0.0893 | 0.0737 | 0.216 | 0.117 | 0.0644 | 0.0712 | 0.0579 | 0.198 | 0.141 | 0.0682 | 0.0758 | 0.062 |
| NCI-H441 | 0.903 | 0.862 | 0.39 | 0.211 | 0.0805 | 0.278 | 0.197 | 0.196 | 0.181 | 0.17 | 0.587 | 0.45 | 0.129 | 0.122 | 0.127 | 0.275 | 0.219 | 0.121 | 0.118 | 0.137 |
| NCI-H460 | 0.983 | 0.907 | 0.063 | 0.0391 | 0.0257 | 0.0254 | 0.0275 | 0.0254 | 0.0299 | 0.023 | 0.518 | 0.462 | 0.0434 | 0.0267 | 0.019 | 0.333 | 0.321 | 0.0276 | 0.0244 | 0.0254 |
| NCI-H520 | 0.763 | 0.56 | 0.702 | 0.169 | 0.142 | 0.236 | 0.22 | 0.227 | 0.202 | 0.188 | 0.241 | 0.236 | 0.21 | 0.169 | 0.121 | 0.364 | 0.555 | 0.411 | 0.16 | 0.171 |
| NCI-H596 | 0.923 | 0.749 | 0.923 | 0.698 | 0.397 | 1.08 | 0.865 | 0.996 | 0.548 | 0.414 | 0.587 | 0.524 | 0.579 | 0.587 | 0.238 | 1.05 | 0.988 | 0.899 | 0.891 | 0.502 |
| NCI-H647 | 1.1 | 1.16 | 0.863 | 0.117 | 0.0874 | 0.128 | 0.122 | 0.098 | 0.109 | 0.0989 | 0.193 | 0.112 | 0.0468 | 0.107 | 0.0735 | 0.365 | 0.272 | 0.0949 | 0.129 | 0.102 |
| NCI-H650 | 1.04 | 1.02 | 1 | 0.934 | 0.249 | 0.884 | 0.601 | 0.607 | 0.386 | 0.171 | 0.427 | 0.468 | 0.4 | 0.256 | 0.136 | 0.315 | 0.339 | 0.384 | 0.302 | 0.196 |
| NCI-H661 | 0.945 | 0.989 | 0.809 | 0.567 | 0.286 | 0.872 | 0.895 | 0.797 | 0.353 | 0.257 | 0.878 | 0.862 | 0.853 | 0.361 | 0.195 | 0.496 | 0.552 | 0.473 | 0.341 | 0.257 |
| NCI-H727 | 0.834 | 0.978 | 0.636 | 0.41 | 0.356 | 0.607 | 0.245 | 0.331 | 0.316 | 0.284 | 0.378 | 0.376 | 0.326 | 0.231 | 0.214 | 0.871 | 0.915 | 0.875 | 0.538 | 0.411 |
| NCI-H838 | 0.965 | 0.977 | 0.667 | 0.178 | 0.158 | 0.192 | 0.196 | 0.151 | 0.157 | 0.12 | 0.291 | 0.269 | 0.203 | 0.186 | 0.2 | 0.405 | 0.45 | 0.217 | 0.195 | 0.2 |
| NCI-H1355 | 0.938 | 0.97 | 0.91 | 0.843 | 0.328 | 0.649 | 0.685 | 0.457 | 0.337 | 0.18 | 0.708 | 0.725 | 0.327 | 0.325 | 0.156 | 0.35 | 0.345 | 0.361 | 0.246 | 0.183 |
| NCI-H1395 | 0.963 | 0.988 | 0.843 | 0.396 | 0.318 | 0.638 | 0.535 | 0.329 | 0.359 | 0.331 | 0.429 | 0.366 | 0.304 | 0.326 | 0.287 | 0.611 | 0.694 | 0.568 | 0.387 | 0.383 |
| NCI-H1437 | 1.21 | 1.22 | 1.09 | 0.259 | 0.193 | 1.09 | 0.818 | 0.631 | 0.206 | 0.19 | 0.39 | 0.447 | 0.226 | 0.143 | 0.0854 | 0.531 | 0.636 | 0.504 | 0.311 | 0.241 |
| NCI-H1650 | 0.89 | 0.344 | 0.225 | 0.212 | 0.175 | 0.195 | 0.194 | 0.228 | 0.214 | 0.215 | 0.267 | 0.147 | 0.167 | 0.199 | 0.148 | 0.384 | 0.33 | 0.185 | 0.165 | 0.134 |
